In ChEMBL document CHEMBL3046105, “Synthesis and antihyperlipidemic efficiency of berberine-based HMG-CoA reductase inhibitor” (Med Chem Res, 2012):

Experiments:
[1] = Toxicity in Mus musculus Kunming (mouse); assay type: organism-based; settings: in vivo
Oryctolagus cuniculus [2] = test: Antihyperlipidemic activity in high fat-high cholesterol fed New Zealand Oryctolagus cuniculus (rabbit) assessed as total cholesterol level in blood at 15 mg/kg, po for 40 days (reference value: 8.89 +/- 0.53 mmol/l); assay type: functional
Oryctolagus cuniculus [3] = test: Toxicity in high fat-high cholesterol fed New Zealand Oryctolagus cuniculus (rabbit) assessed as mortality at 15 mg/kg, po for 40 days; assay type: organism-based; design: dose 15 mg/kg, route oral; settings: in vivo, 960 h
Oryctolagus cuniculus [4] = test: Antihyperlipidemic activity in high fat-high cholesterol fed New Zealand Oryctolagus cuniculus (rabbit) assessed as triglyceride level in blood at 15 mg/kg, po for 40 days (reference value: 2.11 +/- 0.43 mmol/l); assay type: functional
Oryctolagus cuniculus [5] = test: Antihyperlipidemic activity in high fat-high cholesterol fed New Zealand Oryctolagus cuniculus (rabbit) assessed as low-density lipoprotein-cholesterol level in blood at 15 mg/kg, po for 40 days (reference value: 3.45 +/- 0.56 mmol/l); assay type: functional
Oryctolagus cuniculus [6] = test: Toxicity in high fat-high cholesterol fed New Zealand Oryctolagus cuniculus (rabbit) assessed as body weight at 15 mg/kg, po for 40 days; assay type: organism-based; design: dose 15 mg/kg, route oral; settings: in vivo, 960 h
[7] = target: T1, 3-hydroxy-3-methylglutaryl-coenzyme A reductase (Mus musculus) (UniProt Q01237); test: Inhibition of HMGR isolated from Mus musculus (mouse) liver assessed as change in NADPH at 8 umol/l by HPLC analysis
T1 sequence (whole entry): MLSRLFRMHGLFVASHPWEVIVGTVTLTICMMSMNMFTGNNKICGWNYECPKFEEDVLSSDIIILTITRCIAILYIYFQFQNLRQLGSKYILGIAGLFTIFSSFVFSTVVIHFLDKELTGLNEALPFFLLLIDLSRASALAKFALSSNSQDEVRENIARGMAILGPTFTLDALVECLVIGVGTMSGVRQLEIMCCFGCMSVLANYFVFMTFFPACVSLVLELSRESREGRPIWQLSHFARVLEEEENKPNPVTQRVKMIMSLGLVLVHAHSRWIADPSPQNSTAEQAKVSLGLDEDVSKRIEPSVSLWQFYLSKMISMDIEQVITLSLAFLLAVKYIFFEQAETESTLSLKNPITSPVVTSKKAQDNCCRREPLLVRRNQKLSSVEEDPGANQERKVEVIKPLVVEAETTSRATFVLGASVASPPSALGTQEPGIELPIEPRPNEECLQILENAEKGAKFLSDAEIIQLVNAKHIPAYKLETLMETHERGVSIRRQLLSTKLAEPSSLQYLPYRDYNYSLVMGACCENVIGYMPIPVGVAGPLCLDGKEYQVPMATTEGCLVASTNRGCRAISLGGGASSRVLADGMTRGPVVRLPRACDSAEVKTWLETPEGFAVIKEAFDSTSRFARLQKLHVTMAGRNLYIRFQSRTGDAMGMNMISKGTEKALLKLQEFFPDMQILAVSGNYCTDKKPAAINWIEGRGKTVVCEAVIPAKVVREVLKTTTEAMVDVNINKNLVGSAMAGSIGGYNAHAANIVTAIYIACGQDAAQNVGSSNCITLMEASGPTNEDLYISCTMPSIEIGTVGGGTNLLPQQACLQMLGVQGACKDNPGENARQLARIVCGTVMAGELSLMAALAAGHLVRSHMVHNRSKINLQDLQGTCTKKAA

Oryctolagus cuniculus [8] = test: Antihyperlipidemic activity in high fat-high cholesterol fed New Zealand Oryctolagus cuniculus (rabbit) assessed as high-density lipoprotein-cholesterol level in blood at 15 mg/kg, po for 40 days (reference value: 0.67 +/- 0.22 mmol/l); assay type: functional
Oryctolagus cuniculus [9] = test: Antihyperlipidemic activity in high fat-high cholesterol fed New Zealand Oryctolagus cuniculus (rabbit) assessed as triglyceride level in blood at 4 mg/kg, po for 40 days (reference value: 2.11 +/- 0.43 mmol/l); assay type: functional
Oryctolagus cuniculus [10] = test: Antihyperlipidemic activity in high fat-high cholesterol fed New Zealand Oryctolagus cuniculus (rabbit) assessed as low-density lipoprotein-cholesterol level in blood at 4 mg/kg, po for 40 days (reference value: 3.45 +/- 0.56 mmol/l); assay type: functional
Oryctolagus cuniculus [11] = test: Antihyperlipidemic activity in high fat-high cholesterol fed New Zealand Oryctolagus cuniculus (rabbit) assessed as total cholesterol level in blood at 4 mg/kg, po for 40 days (reference value: 8.89 +/- 0.53 mmol/l); assay type: functional
Oryctolagus cuniculus [12] = test: Antihyperlipidemic activity in high fat-high cholesterol fed New Zealand Oryctolagus cuniculus (rabbit) assessed as high-density lipoprotein-cholesterol level in blood at 4 mg/kg, po for 40 days (reference value: 0.67 +/- 0.22 mmol/l); assay type: functional

CCCCCCCCCCCCc1c2c(OC)c(OC)ccc2cc2[n+]1CCc1cc3c(cc1-2)OCO3.[Cl-] [8-DODECYL-BERBERINE CHLORIDE]
LD50 [1]: 752 mg/kg
Activity (Oryctolagus cuniculus [2]): 6.04e+06 nmol/L
Activity (Oryctolagus cuniculus [3]): Non-toxic
Activity (Oryctolagus cuniculus [4]): 1.86e+06 nmol/L
Activity (Oryctolagus cuniculus [5]): 2.98e+06 nmol/L
Activity (Oryctolagus cuniculus [6]): Non-toxic
inhibition [7]: 4.2%
Activity (Oryctolagus cuniculus [8]): 720000 nmol/L

CCCCCCCCCCCCCCCCCCc1c2c(OC)c(OC)ccc2cc2[n+]1CCc1cc3c(cc1-2)OCO3.[Cl-] [8-OCTADECYL-BERBERINE CHLORIDE]
LD50 [1]: > 1000 mg/kg
Activity (Oryctolagus cuniculus [2]): 2.37e+06 nmol/L
Activity (Oryctolagus cuniculus [3]): Non-toxic
Activity (Oryctolagus cuniculus [4]): 1.6e+06 nmol/L
Activity (Oryctolagus cuniculus [5]): 2.55e+06 nmol/L
Activity (Oryctolagus cuniculus [6]): Non-toxic
inhibition [7]: 33%
Activity (Oryctolagus cuniculus [8]): 750000 nmol/L

CCCCCCCCc1c2c(OC)c(OC)ccc2cc2[n+]1CCc1cc3c(cc1-2)OCO3.[Cl-] [8-OCTYL-BERBERINE CHLORIDE]
LD50 [1]: 534 mg/kg
Activity (Oryctolagus cuniculus [2]): 6.25e+06 nmol/L
Activity (Oryctolagus cuniculus [3]): Non-toxic
Activity (Oryctolagus cuniculus [4]): 1.95e+06 nmol/L
Activity (Oryctolagus cuniculus [5]): 3.06e+06 nmol/L
Activity (Oryctolagus cuniculus [6]): Non-toxic
Activity (Oryctolagus cuniculus [8]): 700000 nmol/L

CCCCCCCCCCCCCCc1c2c(OC)c(OC)ccc2cc2[n+]1CCc1cc3c(cc1-2)OCO3.[Cl-] [8-TETRADECYL-BERBERINE CHLORIDE]
LD50 [1]: 803 mg/kg
Activity (Oryctolagus cuniculus [2]): 6.02e+06 nmol/L
Activity (Oryctolagus cuniculus [3]): Non-toxic
Activity (Oryctolagus cuniculus [4]): 1.73e+06 nmol/L
Activity (Oryctolagus cuniculus [5]): 2.41e+06 nmol/L
Activity (Oryctolagus cuniculus [6]): Non-toxic
inhibition [7]: 11.2%
Activity (Oryctolagus cuniculus [8]): 730000 nmol/L

COc1ccc2cc3[n+](cc2c1OC)CCc1cc2c(cc1-3)OCO2.[Cl-] [BERBERINE CHLORIDE]
LD50 [1]: 764 mg/kg
Activity (Oryctolagus cuniculus [2]): 7.94e+06 nmol/L
Activity (Oryctolagus cuniculus [4]): 2.02e+06 nmol/L
Activity (Oryctolagus cuniculus [5]): 3.27e+06 nmol/L
Activity (Oryctolagus cuniculus [8]): 700000 nmol/L

CC[C@H](C)C(=O)O[C@H]1C[C@@H](C)C=C2C=C[C@H](C)[C@H](CC[C@@H]3C[C@@H](O)CC(=O)O3)[C@H]21 [LOVASTATIN]
Activity (Oryctolagus cuniculus [9]): 1.62e+06 nmol/L
Activity (Oryctolagus cuniculus [10]): 1.85e+06 nmol/L
LD50 [1]: > 1000 mg/kg
Activity (Oryctolagus cuniculus [11]): 2.56e+06 nmol/L
Activity (Oryctolagus cuniculus [12]): 780000 nmol/L
inhibition [7]: 20.2%
